Converted amounts (≈) assume the structure as drawn. “And” between values parts separate entries of the source, which are not always exact repeats. Identical values can stand only once.
Assays:
Assay in all cases: ≥ marks a high value that may be exact or a test limit, other limits are often not marked, values filed in µg/mL are converted to µM
[1] = tested on: Pseudomonas aeruginosa ATCC 27853
[2] = tested on: Klebsiella pneumoniae ATCC 43816
[3] = tested on: Enterococcus faecalis NCTC 12697
[4] = tested on: Candida albicans NCYC 1467
[5] = tested on: Staphylococcus aureus NCTC 10788
[6] = tested on: Staphylococcus aureus NCTC 12493
[7] = tested on: Escherichia coli NCTC 10418
Enterococcus faecium = tested on: Enterococcus faecium
[8] = tested on: Escherichia coli ATCC 25922
Acinetobacter baumannii = tested on: Acinetobacter baumannii
Klebsiella pneumoniae = tested on: Klebsiella pneumoniae
[9] = tested on: Staphylococcus aureus ATCC 43300
Pseudomonas aeruginosa = tested on: Pseudomonas aeruginosa
Streptococcus pneumoniae = tested on: Streptococcus pneumoniae
[10] = tested on: Staphylococcus aureus ATCC 700699
[11] = tested on: Staphylococcus aureus ATCC 29213
[12] = tested on: Staphylococcus aureus ATCC 33591
[13] = tested on: Klebsiella pneumoniae ATCC 700603
[14] = tested on: Salmonella enterica subsp. enterica serovar Typhimurium ATCC 14028
[15] = tested on: Bacillus cereus ATCC 11778
[16] = tested on: Klebsiella aerogenes ATCC 13048
[17] = tested on: Staphylococcus aureus SAP 0017
[18] = tested on: Staphylococcus aureus ATCC BAA-1556
Escherichia coli = tested on: Escherichia coli
[19] = tested on: Staphylococcus epidermidis
Proteus vulgaris = tested on: Proteus vulgaris
Bacillus subtilis = tested on: Bacillus subtilis
Salmonella typhimurium = tested on: Salmonella typhimurium
Streptococcus pyogenes = tested on: Streptococcus pyogenes

An MIC [1] greater than 512 µM, an MIC [2] of no less than 512 µM and an MIC [3] of 16 µM (≈ 33.8 µg/mL) were found for `CC[C@H](C)[C@H](NC(=O)[C@H](C)NC(=O)[C@H](CO)NC(=O)[C@@H](NC(=O)[C@@H](NC(=O)[C@H](CCCCN)NC(=O)[C@@H]1CCCN1C(=O)[C@@H](NC(=O)[C@H](CC(C)C)NC(=O)[C@H](CO)NC(=O)[C@H](CC(C)C)NC(=O)[C@@H](N)Cc1ccccc1)[C@@H](C)CC)[C@@H](C)CC)[C@@H](C)CC)C(=O)N[C@@H](CO)C(=O)N[C@@H](C)C(=O)N[C@@H](CC(C)C)C(=O)N[C@H](C(=O)N[C@@H](CCCCN)C(=O)N[C@@H](Cc1cnc[nH]1)C(=O)N[C@@H](Cc1ccccc1)C(N)=O)[C@@H](C)CC` [FLSLIPKIISAISALIKHF] in this work. It also gave an MIC [4] of no less than 32 µM, an MIC [5] of 2 µM (≈ 4.22 µg/mL) and an MIC [6] of no less than 64 µM. It also gave an MIC [7] of no less than 512 µM.

An MIC (Enterococcus faecium) of 8 µM (≈ 18.6 µg/mL), an MIC [8] of 3 µM (≈ 6.97 µg/mL) and an MIC (Acinetobacter baumannii) of 9.3 µM (≈ 21.6 µg/mL) were found for `CC[C@H](C)[C@H](NC(=O)CNC(=O)[C@H](Cc1cnc[nH]1)NC(=O)CNC(=O)CN)C(=O)N[C@@H](CCCN=C(N)N)C(=O)N[C@@H](CCCN=C(N)N)C(=O)N[C@H](C(=O)N[C@H](C(=O)N[C@@H](CCCN=C(N)N)C(=O)N[C@@H](CCCCN)C(=O)N[C@H](C(=O)N[C@H](C(=O)N[C@@H](Cc1cnc[nH]1)C(=O)N[C@H](C(=O)N[C@H](C(=O)N[C@@H](CCCCN)C(=O)N[C@@H](CCCCN)C(=O)NCC(=O)NCC(=O)N[C@@H](CS)C(N)=O)[C@@H](C)CC)[C@@H](C)CC)[C@@H](C)CC)[C@@H](C)CC)[C@@H](C)CC)[C@@H](C)CC` [GGHGIRRIIRKIIHIIKKGGC] in this work. The MIC (Klebsiella pneumoniae) was greater than 16 µM, the MIC [9] was 4 µM (≈ 9.3 µg/mL) and the MIC (Pseudomonas aeruginosa) was 12 µM (≈ 27.9 µg/mL). It also gave an MIC (Streptococcus pneumoniae) of 8 µM (≈ 18.6 µg/mL).

An MIC [8] greater than 100 µM, an MIC [1] greater than 100 µM and an MIC [10] of no less than 100 µM were found for `CC[C@H](C)[C@H](NC(=O)[C@H](CC(=O)O)NC(=O)[C@H](CCCCN)NC(=O)[C@H](C)NC(=O)[C@H](C)NC(=O)CNC(=O)[C@H](CCCCN)NC(=O)[C@H](CC(C)C)NC(=O)[C@@H](NC(=O)[C@H](CC(=O)O)NC(=O)[C@@H](NC(=O)[C@@H](NC(=O)CN)C(C)C)C(C)C)[C@@H](C)CC)C(=O)N[C@@H](C)C(=O)NCC(=O)N[C@@H](Cc1cnc[nH]1)C(=O)N[C@@H](C)C(=O)N[C@@H](CO)C(=O)N[C@@H](CCCCN)C(=O)N[C@H](C(=O)N[C@@H](CCSC)C(=O)N[C@@H](CC(N)=O)C(=O)N[C@@H](CCCCN)C(=O)N[C@@H](CC(C)C)C(N)=O)C(C)C` [GVVDILKGAAKDIAGHASKVMNKL] in this work. For the same compound, the MIC [11] was greater than 100 µM, the MIC [12] was no less than 100 µM and the MIC [13] was greater than 100 µM.

An MIC [8] greater than 100 µM, an MIC [1] greater than 100 µM and an MIC [10] of no less than 100 µM were found for `CC[C@H](C)[C@H](NC(=O)[C@H](CC(=O)O)NC(=O)[C@H](CCCCN)NC(=O)[C@H](C)NC(=O)[C@H](C)NC(=O)CNC(=O)[C@H](CCCCN)NC(=O)[C@H](CC(C)C)NC(=O)[C@@H](NC(=O)[C@H](CC(=O)O)NC(=O)[C@@H](NC(=O)[C@@H](NC(=O)CN)C(C)C)C(C)C)[C@@H](C)CC)C(=O)N[C@@H](C)C(=O)NCC(=O)N[C@@H](Cc1cnc[nH]1)C(=O)N[C@@H](CC(C)C)C(=O)N[C@@H](C)C(=O)N[C@@H](CO)C(=O)N[C@@H](CCCCN)C(=O)N[C@@H](C)C(=O)N[C@@H](CCSC)C(=O)N[C@@H](CC(N)=O)C(=O)N[C@@H](CCCCN)C(=O)N[C@@H](CC(C)C)C(N)=O` [GVVDILKGAAKDIAGHLASKAMNKL] in this work. It also gave an MIC [11] greater than 100 µM, an MIC [12] of no less than 100 µM and an MIC [13] greater than 100 µM.

An MIC [8] greater than 70.4 µM, an MIC [14] greater than 70.4 µM and an MIC [15] of no less than 70.4 µM were found for `CC[C@H](C)[C@H](N)C(=O)N[C@@H](CC(C)C)C(=O)NCC(=O)N[C@@H](CCCCN)C(=O)N[C@@H](C)C(=O)N[C@@H](Cc1c[nH]c2ccccc12)C(=O)N[C@@H](CCC(=O)O)C(=O)NCC(=O)N[C@@H](C)C(=O)N[C@@H](CCCCN)C(=O)N[C@@H](CO)C(=O)N[C@@H](CC(C)C)C(=O)N[C@@H](Cc1ccccc1)C(N)=O` [ILGKAWEGAKSLF] in this work. The MIC [11] was greater than 70.4 µM and the MIC [16] was no less than 70.4 µM.

For `CC[C@H](C)[C@H](N)C(=O)N[C@@H](CC(C)C)C(=O)N[C@H](C(=O)N[C@@H](CCCN=C(N)N)C(=O)N[C@@H](Cc1c[nH]c2ccccc12)C(=O)N[C@H](C(=O)N[C@@H](CCCN=C(N)N)C(=O)N[C@@H](Cc1c[nH]c2ccccc12)C(=O)N[C@@H](CCCN=C(N)N)C(=O)N[C@H](C(=O)N[C@@H](CCC(N)=O)C(=O)N[C@@H](Cc1c[nH]c2ccccc12)C(N)=O)[C@@H](C)CC)[C@@H](C)CC)C(C)C` [ILVRWIRWRIQW], the MIC [17] was 2 µM and 4 µM.

An MIC [1] of 64 µM (≈ 125 µg/mL), an MIC [2] of no less than 32 µM and an MIC [3] of no less than 256 µM were found for `CC[C@H](C)[C@@H]1NC(=O)[C@H](C)NC(=O)[C@@H](NC(=O)[C@H](Cc2ccccc2)NC(=O)[C@@H](NC(=O)[C@H](CCCCN)NC(=O)[C@H](Cc2c[nH]c3ccccc23)NC(=O)[C@@H]2CCCN2C(=O)[C@H](CC(C)C)NC(=O)[C@H](Cc2ccccc2)NC(=O)[C@H](CCCCN)NC(=O)[C@@H](N)CCCCN)[C@@H](C)CC)CSSC[C@@H](C(=O)O)NC(=O)[C@H](CCCCN)NC(=O)[C@H](CCCCN)NC(=O)[C@H]([C@@H](C)O)NC1=O` [KKFLPWKIFCAITKKC] in this work. For the same compound, the MIC [4] was 8 µM (≈ 15.6 µg/mL), the MIC [5] was 8 µM (≈ 15.6 µg/mL) and the MIC [6] was 8 µM (≈ 15.6 µg/mL). The MIC [7] was 16 µM (≈ 31.2 µg/mL).

An MIC [18] of no less than 100 µM was found for `CC(C)C[C@H](NC(=O)[C@H](CC(C)C)NC(=O)[C@H](CCCCN)NC(=O)[C@H](CC(C)C)NC(=O)[C@H](CC(C)C)NC(=O)[C@H](CC(C)C)NC(=O)[C@@H](N)CCCCN)C(N)=O` [KLLLKLL] in this work.

An MIC [18] of no less than 100 µM was found for `CC(C)C[C@H](NC(=O)[C@H](CC(C)C)NC(=O)[C@H](CC(C)C)NC(=O)[C@H](CCCCN)NC(=O)[C@H](CC(C)C)NC(=O)[C@@H](N)CC(C)C)C(=O)N[C@@H](CCCCN)C(N)=O` [LLKLLLK] in this work.

An MIC [18] of no less than 100 µM was found for `CC(C)C[C@H](NC(=O)[C@H](CC(C)C)NC(=O)[C@H](CC(C)C)NC(=O)[C@H](CCCCN)NC(=O)[C@H](CC(C)C)NC(=O)[C@H](CCCCN)NC(=O)[C@H](CC(C)C)NC(=O)[C@H](CC(C)C)NC(=O)[C@@H](N)CC(C)C)C(N)=O` [LLLKLKLLL] in this work.

An MIC (Escherichia coli) of 8 µM (≈ 13.2 µg/mL), an MIC [19] of no less than 64 µM and an MIC (Proteus vulgaris) of no less than 64 µM were found for `CC(C)C[C@H](NC(=O)[C@H](CCCN=C(N)N)NC(=O)[C@@H]1CCCN1C(=O)[C@H](Cc1cnc[nH]1)NC(=O)[C@@H]1CCCN1C(=O)[C@@H]1CCCN1C(=O)[C@H](CCCN=C(N)N)NC(=O)[C@@H]1CCCN1C(=O)[C@@H]1CCCN1C(=O)[C@H](Cc1cnc[nH]1)NC(=O)[C@@H]1CCCN1C(=O)[C@@H]1CCCN1C(=O)[C@H](CCCN=C(N)N)NC(=O)[C@@H]1CCCN1)C(=O)O` [PRPPHPPRPPHPRL] in this work. The MIC (Bacillus subtilis) was no less than 64 µM, the MIC (Salmonella typhimurium) was 0.5 µM (≈ 0.825 µg/mL) and the MIC (Pseudomonas aeruginosa) was 64 µM (≈ 106 µg/mL). The MIC (Streptococcus pyogenes) was no less than 64 µM.

An MIC [18] of no less than 100 µM was found for `CC[C@H](C)[C@H](NC(=O)[C@H](Cc1c[nH]c2ccccc12)NC(=O)[C@H](CCCN=C(N)N)NC(=O)[C@@H](N)CCCN=C(N)N)C(=O)N[C@@H](CCCN=C(N)N)C(=O)N[C@@H](Cc1c[nH]c2ccccc12)C(=O)N[C@@H](CC(C)C)C(N)=O` [RRWIRWL] in this work.
